Each structure is given as a SMILES string. Some results are limits rather than exact numbers.

The conditions of series [1]: Human Phase I; cited from earlier work.
Series [2] in a line: multispecies hepatocyte stability, summary across species. It counts as in vitro ADME, rat, dog, monkey, human. An excerpt: (§1) However, the hepatocyte stability of 7 was far better than 1 for rat, dog, and human and was therefore poised for further advancement of compound characterization.
Series [3] is described as follows: hepatocyte metabolite stability (monkey). In kind it is in vitro ADME. As to conditions: Monkey hepatocytes, 4 h incubation of the parent PAM.
From the text: as §1

A short description of series [4]: hepatocyte metabolite stability (human). As to conditions: Human hepatocytes, 4 h incubation of the parent PAM. It counts as in vitro ADME.
From the text: From this exercise, a single compound emerged, harboring a tertiary hydroxyl moiety at the 7-position of the indazole, VU6052254 (henceforth PAM 7).
as §1

The conditions of series [5]: dog MTD study and high-dose rat 14-day toxicology study; result in words; cited from earlier work.
Series [6] is described as follows: kinetic / aqueous solubility. In kind it is physicochemical. The conditions noted are these: result in words.
The subject of a further series is Sprague-Dawley rats. In words: CFC with scopolamine challenge. It counts as in vivo, rat.

On to `Cn1cc2c(-c3cc(F)c(CN4C(=O)c5cccnc5C4O)c(F)c3)cccc2n1` (stereo not shown) [compound 2], for which, in series [1], the “metabolite share of plasma AUC of total VU0467319 drug administered” value was over 50%. For the same compound, in series [2] (across all four species (rat, dog, monkey, human hepatocytes)), the “level of oxidative metabolite generated (label = metabolite)” value was over 23%. Also, the “% Total Peak Area, oxidative metabolite (label = metabolite)” value came out at 74.3% in series [3] and 34.9% in series [4].
For the compound `[2H]C1([2H])c2ncccc2C(=O)N1Cc1c(F)cc(-c2cccc3nn(C([2H])([2H])[2H])cc23)cc1F` [compound 5], the “amount of oxidative metabolism at high dose” value in series [5] is listed as “comparable to that of VU0467319 (1)”. The aqueous solubility result in series [6] is “low aqueous solubility”.
In the case of `[2H]C1(O)c2ncccc2C(=O)N1Cc1c(F)cc(-c2cccc3nn(C([2H])([2H])[2H])cc23)cc1F` (stereo not shown) [compound 6], the “level of oxidative metabolite generated (label = metabolite)” value in series [2] (across species except for monkey) was under 10%. For the same compound, in series [3], the “% Total Peak Area, oxidative metabolite (label = metabolite)” value is reported as 21%.
As for `CN1[C@@H]2C[C@@H](OC(=O)[C@H](CO)c3ccccc3)C[C@H]1[C@@H]1O[C@@H]12` [scopolamine], in the series with Sprague-Dawley rats (0.25 mg/kg IP, rat), the “disruption of acquisition of CFC” value was about 65%. For the same compound, in the series with Sprague-Dawley rats (0.26 mg/kg as printed, result in words), the “effect of scopolamine alone on acquisition of CFC” value is recorded as “robust decrease in the acquisition of CFC”.
